From ChEMBL document CHEMBL1149967, “Synthesis and antitumor activity of novel distamycin derivatives” (Bioorg Med Chem Lett, 1996) come the findings set out here.

The structures appear in SMILES notation.

The test system of one assay is Mus musculus. As to the kind of experiment: In vivo inhibition of L1210 murine leukemia, expressed as optimal non toxic dose (CD2F1 mice were given an injection of […] i.p. and treated on day 1). In kind it is functional.
The test system of another assay is L1210. As to the kind of experiment: In vitro inhibition of L1210 murine leukemia (Drug sensitivity was determined by counting surviving cells after 48 hr of continuous exposure to at least 4 conc. of drug). In kind it is functional, cell-based. To be noted: Mus musculus, L1210, 48 h.

With `Cl.Cn1cc(NC(=O)c2cc(NC(=O)c3cc(NC(=O)c4nc(NC(=O)c5ccc(N(CCCl)CCCl)cc5)cn4C)cn3C)cn2C)cc1C(=O)NCCC(=N)N`, the OD in the assay with Mus musculus turned out to be 6.25 mg/kg. Moreover, the IC50 (as a rule, the concentration that gives 50% inhibition) with L1210 was found to be 2 µg/mL.

Consider `Cl.Cn1cc(NC(=O)c2cc(NC(=O)c3cc(NC(=O)c4cc(NC(=O)c5ccc(N(CCCl)CCCl)cc5)nn4C)cn3C)cn2C)cc1C(=O)NCCC(=N)N`, for which the OD in the assay on Mus musculus came to 3.13 mg/kg. Moreover, the IC50 with L1210 came out at 0.0291 µg/mL.

Molecule `Cl.Cn1cc(NC(=O)c2cc(NC(=O)c3cc(NC(=O)c4ccc(N(CCCl)CCCl)cc4)cn3C)cn2C)cc1C(=O)NCCC(=N)N` [TALLIMUSTINE CHLORIDE] displayed an OD in the assay on Mus musculus of 3.13 mg/kg.

In the case of `C=C(Br)C(=O)Nc1cn(C)c(C(=O)Nc2cc(C(=O)Nc3cc(C(=O)Nc4cc(C(=O)NCCC(=N)N)n(C)c4)n(C)c3)n(C)c2)n1.Cl`, the OD in the assay on Mus musculus turned out to be 6.25 mg/kg.

In the assay on Mus musculus, `C=C(Br)C(=O)Nc1cc(C(=O)Nc2cc(C(=O)Nc3cc(C(=O)Nc4cc(C(=O)NCCC(=N)N)n(C)c4)n(C)c3)n(C)c2)n(C)n1.Cl` gave an OD of 6.25 mg/kg.
